Consider two compounds from patent publication US6747056B2, “K99-5041 substance and production thereof” (The Kitasato Institute, priority 2002, dated 2004).

Structures are written as SMILES.

Series [1] is described as follows: Grouping for acidic, neutral and basic. Type of series: physicochemical.
Series [2] has as its target T1, Lanosterol synthase of human origin (Homo sapiens, UniProt P48449).
T1 construct: made in house; host or cells: lanosterol synthase deficient yeast GIL77 (GAPDH promoter); cell-free extract
T1 sequence (P48449 1-732): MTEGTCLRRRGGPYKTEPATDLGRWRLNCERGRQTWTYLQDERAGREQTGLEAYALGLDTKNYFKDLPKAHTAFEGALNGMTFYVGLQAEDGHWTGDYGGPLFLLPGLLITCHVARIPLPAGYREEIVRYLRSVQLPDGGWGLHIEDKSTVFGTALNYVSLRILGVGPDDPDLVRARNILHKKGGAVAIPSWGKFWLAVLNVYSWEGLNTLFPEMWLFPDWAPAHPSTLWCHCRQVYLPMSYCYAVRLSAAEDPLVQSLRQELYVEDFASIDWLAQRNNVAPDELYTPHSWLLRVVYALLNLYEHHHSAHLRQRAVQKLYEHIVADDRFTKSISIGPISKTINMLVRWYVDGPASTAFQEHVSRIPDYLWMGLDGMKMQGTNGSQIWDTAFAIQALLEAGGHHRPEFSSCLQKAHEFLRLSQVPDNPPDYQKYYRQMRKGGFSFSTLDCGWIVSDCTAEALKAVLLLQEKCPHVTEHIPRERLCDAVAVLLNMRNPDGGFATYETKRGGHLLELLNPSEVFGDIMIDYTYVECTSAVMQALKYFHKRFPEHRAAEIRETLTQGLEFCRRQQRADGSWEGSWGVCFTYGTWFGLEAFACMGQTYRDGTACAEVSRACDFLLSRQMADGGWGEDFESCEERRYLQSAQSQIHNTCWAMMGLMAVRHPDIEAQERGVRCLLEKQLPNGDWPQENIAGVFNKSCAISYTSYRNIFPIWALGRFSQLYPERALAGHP
Description: Inhibitory action against lanosterol synthase of human origin (cell-free extract of transformed yeast, [14C](3S)-2,3-oxidosqualene substrate). Type of series: biochemical. The settings on record: human lanosterol synthase expressed in yeast GIL77, cell-free extract 1 mg protein; 37° C., 60 minutes; substrate 0.17-0.42 μM; read-out: 50% inhibition concentration (IC50) for lanosterol synthase activity. The procedure:
(1) Inhibitory Action Against Lanosterol Synthase of Human Origin
Enzyme origin used is as follows. […] The thus obtained cell-free extract derived from transformed yeast was used.
The above transformed yeast was homogenized in buffer A [0.1 M potassium-phosphate buffer solution (pH 7.4), 0.45 M sucrose, 1 mM EDTA and 1 mM dithiothreitol] in the presence of acid treated glass beads using Waring blender [Type 500ACD, Sakuma Seisakusho Co., Japan]. Supernatant obtained by centrifugation, 8600×g, was prepared to make protein concentration of 10 mg/ml by adding the buffer A hereinabove to prepare the cell-free extract.
Assay of lanosterol synthase was performed as follows.
Subsequently, 6% potassium hydroxide/ethanol was added thereto to terminate the reaction, and the mixture was saponificated by incubating at 37° C. for 10 minutes, added cyclohexane 2 ml and stirred well. The cyclohexane layer 1.6 ml was dried up, spotted on TLC plate [silica gel plate (with concentration zone), Merck Inc., U.S.A., thickness 0.25 mm: Art. […] Next, amounts of unreacted [^14C](3S)-2,3-oxidosqualene and generated [^14C]lanosterol were quantitatively assayed using the photo image analyzer BAS-1500 (Fuji Photo Film Co., Japan) to calculate inhibition rate of lanosterol synthesis.

The nature of series [3]: Solubility in solvent. Type of series: physicochemical. The settings on record: for Solubility in solvent: organic solvents: methanol, ethanol, acetonitrile, ethyl acetate, chloroform and dimethyl sulfoxide.

For `CCCCCCCCCCCCCCCC/C=C1\CCN=C1C` [K99-5041-C2x substance], in series [1], the “Grouping for acidic, neutral and basic” value is recorded as “Weak basic substance”. In series [2], the IC50 was 18 µM. In addition, in series [3], the “Solubility in solvent: organic solvents” value is reported as “soluble” and the “Solubility in solvent: water” value was “insoluble”.

In the case of `CC1=NCC/C1=C\CCCCCCCCCCCCCC(C)C` [K99-5041-C1x substance], in series [1], the “Grouping for acidic, neutral and basic” value was “Weak basic substance”. For the same compound, in series [2], the IC50 is 15 µM. In series [3], the “Solubility in solvent: organic solvents” value is given as “soluble” and the “Solubility in solvent: water” value is recorded as “insoluble”.
